Reference: patent US20250387428A1, “PETROLATUM-BASED PHMB COMPOSITIONS AND METHODS FOR THE TREATMENT OF INFLAMMATORY SKIN DISEASE” (priority 2024, published 2025)
Several values for one entry are separate records, joined by “and”; a condition that tells them apart may be missing. Identical values can stand only once. Entries after “also recorded” stand apart in the source; their conditions may differ.

Test system: skin of albino New Zealand White rabbits
Experiment: Rabbit skin irritation, Primary Irritation Index
Settings: sulfate
Description: Within 24 hours to 4 hours before test application, the backs of female albino New Zealand White rabbits were clipped free of hair, exposing 2 test and 2 control areas on each side of the spine with a size of approximately 15 cm×15 cm. The two test sites are located on the left cranial section and the right caudal section of the dorsal region. The two control sites are located on the left caudal and right cranial section of the dorsal region. FIG. 4 depicts the arrangement of test and control sites. The exposed skin is wiped with alcohol and dried. Rabbits of acceptable skin quality were selected and used for testing.
A 25×25 mm gauze patch saturated with 0.5 mL of 0.9% NaCl is used for the control and applied to the clipped control sites. The patches are secured using hypoallergenic, waterproof, surgical tape over the test and control sites. The animal's trunk is securely wrapped so as to maintain the position of the patches. Patches are left applied for a minimum of four hours.
After patch removal, the test and control sites were then scored for erythema and edema at 1, 24, 48 and 72 hours after patch removal. Only the 24, 48, and 72 hour observations were scored and used for calculations. If no response was expected, testing was conducted using three animals per test article. If irritation was anticipated, one animal was tested initially. If the first animal received a score of 2 or less for either erythema or edema, 2 additional rabbits were used to conclude the test.
This total was divided by the total number of observations. The same was done for the control sites. […] These scores for each animal were added and divided by the total number of animals to give the Primary Irritation Index. […] For any response, the Maximum Irritation Response, the time of onset of the response and the time of maximum response was recorded.
To positively validate the test, 10% sodium dodecyl sulfate (SDS), which is a known dermal irritant, in petroleum jelly was applied to a 2.5 cm×2.5 cm gauze patch. As a negative control, 0.5 mL of 0.9% NaCl was applied to a 2.5 cm×2.5 cm gauze patch. A Primary Irritation Index in the moderate to severe range is considered a positive result. The test system and methods utilized were the same as described above.

[1] = per rabbit, test sites, 24, 48 and 72 hour observations after patch removal, patch at least four hours

Structure (SMILES): CCCCCCCCCCCCOS(=O)(=O)[O-].[Na+] [10% SDS, sodium dodecyl sulfate]
- Total Score Average (per rabbit (irritation index for each animal)): Total Score Average = 6.6; also recorded: Total Score Average = 7.3; also recorded: Total Score Average = 5.3
- ED (edema) score total [1]: 19 and 21 and 14
- ER (erythema) score total [1]: 21 and 23 and 18
- ER + ED = Total (per rabbit, test sites, 24, 48 and 72 hour observations): 40 and 44 and 32
